According to the NIST ThermoML archive (doi:10.1007/s10765-015-1980-6):
± gives the expanded uncertainty stated by the source.

What was measured:
[1] = 101 kPa, Liquid; for speed of sound: Frequency=2 MHz; for mass density: Pycnometric method
[2] = xn = mol fraction of the nth substance listed; conditions: 101 kPa, Liquid; for speed of sound: Frequency=2 MHz; for mass density: Pycnometric method

OCCOCCO [diethylene glycol]
[1]
Conditions | mass density [kg/m3] | speed of sound [m/s]
298.15 K | 1112.7 ± 0.7 | 1579.3 ± 8.5
303.15 K | 1109.3 ± 0.7 | 1568 ± 8.4
308.15 K | 1105.9 ± 0.7 | 1557.3 ± 8.3
313.15 K | 1102.5 ± 0.7 | 1546.1 ± 8.3

OCCCCO [1,4-butanediol]
[1], Linear variable-path acoustic interferometer
Conditions | speed of sound [m/s]
298.15 K | 1601.6 ± 8.2
303.15 K | 1589.3 ± 8.1
308.15 K | 1577.7 ± 8
313.15 K | 1565.6 ± 8

[1]
Conditions | mass density [kg/m3]
298.15 K | 1012.6 ± 0.6
303.15 K | 1009.6 ± 0.6
308.15 K | 1006.7 ± 0.6
313.15 K | 1003.7 ± 0.6

CCCCO [butan-1-ol]
[1]
Conditions | mass density [kg/m3] | speed of sound [m/s]
298.15 K | 805.6 ± 0.6 | 1241.1 ± 6.7
303.15 K | 801.9 ± 0.6 | 1223.8 ± 6.6
308.15 K | 798.2 ± 0.6 | 1205.8 ± 6.5
313.15 K | 794.5 ± 0.6 | 1188.8 ± 6.4

OCCOCCO [diethylene glycol] + OCCCCO
[2], Linear variable-path acoustic interferometer, x1 = 1
Conditions | speed of sound [m/s]
298.15 K | 1579.3 ± 8.1
303.15 K | 1568 ± 8
308.15 K | 1557.3 ± 8
313.15 K | 1546.1 ± 7.9

[2], x1 = 1
Conditions | mass density [kg/m3]
298.15 K | 1112.7 ± 0.7
303.15 K | 1109.3 ± 0.7
308.15 K | 1105.9 ± 0.7
313.15 K | 1102.5 ± 0.7

CCC(C)O (stereo unspecified) [butan-2-ol] + OCCOCCO
[2], Linear variable-path acoustic interferometer, x2 = 0
Conditions | speed of sound [m/s]
298.15 K | 1212.2 ± 6.2
303.15 K | 1194.1 ± 6.1
308.15 K | 1175.3 ± 6
313.15 K | 1157.4 ± 5.9

[2], x2 = 0
Conditions | mass density [kg/m3]
298.15 K | 802.4 ± 0.6
303.15 K | 798.3 ± 0.7
308.15 K | 794.2 ± 0.7
313.15 K | 790.1 ± 0.7

CCCCO [butan-1-ol] + OCCOCCO
[2], x2 = 0
Conditions | mass density [kg/m3] | speed of sound [m/s]
298.15 K | 805.6 ± 0.6 | 1241.1 ± 6.7
303.15 K | 801.9 ± 0.6 | 1223.8 ± 6.6
308.15 K | 798.2 ± 0.6 | 1205.8 ± 6.5
313.15 K | 794.5 ± 0.6 | 1188.8 ± 6.4

CCC(C)O (stereo unspecified) [butan-2-ol]
[1], Linear variable-path acoustic interferometer
Conditions | speed of sound [m/s]
298.15 K | 1212.2 ± 6.2
303.15 K | 1194.1 ± 6.1
308.15 K | 1175.3 ± 6
313.15 K | 1157.4 ± 5.9

[1]
Conditions | mass density [kg/m3]
298.15 K | 802.4 ± 0.6
303.15 K | 798.3 ± 0.7
308.15 K | 794.2 ± 0.7
313.15 K | 790.1 ± 0.7
